Experimental data from ChEMBL document CHEMBL4265887 (Bioorg Med Chem Lett, 2018).
Active and inactive are the calls of the source. No cut-off for these calls is given here.

Assays:
HCT-116 [1] = assay: Synergistic cytotoxicity against human HCT116 cells assessed as reduction in cell viability by measuring combination index at 1:1 compound to erlotinib ratio after 48 hrs by MTT assay; assay type: functional
[2] = target: Insulin receptor (Homo sapiens) (UniProt P06213); assay: Inhibition of INSR (unknown origin) at 10 uM
Sequence of Insulin receptor (Homo sapiens) (P06213 28-758 limits assumed): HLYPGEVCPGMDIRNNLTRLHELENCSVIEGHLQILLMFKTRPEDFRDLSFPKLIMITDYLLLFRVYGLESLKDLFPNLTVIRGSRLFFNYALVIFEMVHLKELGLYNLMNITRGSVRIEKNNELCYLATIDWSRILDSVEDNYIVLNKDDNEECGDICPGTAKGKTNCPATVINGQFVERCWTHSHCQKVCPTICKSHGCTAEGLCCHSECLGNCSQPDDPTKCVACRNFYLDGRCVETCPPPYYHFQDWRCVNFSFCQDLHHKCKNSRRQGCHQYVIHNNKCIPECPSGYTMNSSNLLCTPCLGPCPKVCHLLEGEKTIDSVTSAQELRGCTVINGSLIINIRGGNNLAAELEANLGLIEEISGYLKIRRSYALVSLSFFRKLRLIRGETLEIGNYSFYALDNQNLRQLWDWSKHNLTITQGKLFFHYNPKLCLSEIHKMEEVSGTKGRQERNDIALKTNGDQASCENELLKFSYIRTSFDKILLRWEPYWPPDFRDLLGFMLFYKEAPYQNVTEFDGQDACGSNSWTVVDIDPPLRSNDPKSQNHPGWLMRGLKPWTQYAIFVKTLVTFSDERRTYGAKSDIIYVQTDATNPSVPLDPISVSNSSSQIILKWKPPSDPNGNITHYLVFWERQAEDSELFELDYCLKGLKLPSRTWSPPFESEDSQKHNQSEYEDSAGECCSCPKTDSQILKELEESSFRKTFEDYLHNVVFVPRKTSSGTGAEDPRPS
Sequence of Insulin receptor (Homo sapiens) (P06213 763-1382 limits assumed): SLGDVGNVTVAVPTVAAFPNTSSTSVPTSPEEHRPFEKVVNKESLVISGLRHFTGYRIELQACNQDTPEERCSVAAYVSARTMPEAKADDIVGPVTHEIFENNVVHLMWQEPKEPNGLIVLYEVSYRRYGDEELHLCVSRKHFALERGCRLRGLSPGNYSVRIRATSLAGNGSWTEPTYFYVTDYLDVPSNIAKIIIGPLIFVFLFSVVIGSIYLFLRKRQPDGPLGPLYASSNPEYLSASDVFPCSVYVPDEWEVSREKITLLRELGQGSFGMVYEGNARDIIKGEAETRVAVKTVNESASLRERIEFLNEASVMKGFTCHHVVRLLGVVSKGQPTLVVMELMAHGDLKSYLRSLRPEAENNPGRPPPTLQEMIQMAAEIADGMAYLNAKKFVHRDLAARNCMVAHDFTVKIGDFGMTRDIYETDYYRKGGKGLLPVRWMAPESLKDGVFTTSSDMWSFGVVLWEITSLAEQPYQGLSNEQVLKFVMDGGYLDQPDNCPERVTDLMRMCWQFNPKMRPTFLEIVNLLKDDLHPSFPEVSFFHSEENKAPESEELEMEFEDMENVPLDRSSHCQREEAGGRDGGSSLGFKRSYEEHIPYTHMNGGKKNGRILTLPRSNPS

[3] = target: Rho-associated protein kinase 2 (Homo sapiens) (UniProt O75116); assay: Inhibition of ROCK2 (unknown origin) at 10 uM
[4] = target: Mast/stem cell growth factor receptor Kit (Homo sapiens) (UniProt P10721); assay: Inhibition of c-KIT (unknown origin) at 10 uM
[5] = target: Cyclin-dependent kinase 4/cyclin D1 (Homo sapiens) (UniProt P11802+P24385); assay: Inhibition of CDK4/Cyclin D1 (unknown origin) at 10 uM; assay type: protein-complex assay
[6] = target: Serine/threonine-protein kinase Chk1 (Homo sapiens) (UniProt O14757); assay: Inhibition of CHK1 (unknown origin) at 10 uM
HT-29 [7] = assay: Synergistic cytotoxicity against human HT-29 cells assessed as reduction in cell viability by measuring combination index at 1:1 compound to erlotinib ratio after 48 hrs by MTT assay; assay type: functional
HT-29 [8] = assay: Synergistic cytotoxicity against human HT-29 cells assessed as reduction in cell viability by measuring combination index at 1:1 compound to trichostatin A ratio after 48 hrs by MTT assay; assay type: functional
[9] = target: Serine/threonine-protein kinase PLK3 (Homo sapiens) (UniProt Q9H4B4); assay: Inhibition of PLK3 (unknown origin) at 10 uM
[10] = target: Death-associated protein kinase 3 (Homo sapiens) (UniProt O43293); assay: Inhibition of ZIPK (unknown origin) at 10 uM
[11] = target: Proto-oncogene tyrosine-protein kinase Src (Homo sapiens) (UniProt P12931); assay: Inhibition of c-Src (unknown origin) at 10 uM
[12] = target: Serine/threonine-protein kinase mTOR (Homo sapiens) (UniProt P42345); assay: Inhibition of mTOR (unknown origin) at 10 uM
HCT-116 [13] = assay: Synergistic cytotoxicity against human HCT116 cells assessed as reduction in cell viability by measuring combination index at 1:1 compound to trichostatin A ratio after 48 hrs by MTT assay; assay type: functional
HCT-116 [14] = assay: Synergistic cytotoxicity against human HCT116 cells assessed as reduction in cell viability by measuring combination index at 1:1 compound to dasatinib ratio after 48 hrs by MTT assay; assay type: functional
HT-29 [15] = assay: Synergistic cytotoxicity against human HT-29 cells assessed as reduction in cell viability by measuring combination index at 1:1 compound to GSK2126458 ratio after 48 hrs by MTT assay; assay type: functional
HCT-15 = assay: Cytotoxicity against human HCT15 cells assessed as reduction in cell viability after 48 hrs by MTT assay; assay type: functional, cell-based; conditions: HCT-15, 48 h
HT-29 [16] = assay: Synergistic cytotoxicity against human HT-29 cells assessed as reduction in cell viability by measuring combination index at 1:1 compound to dasatinib ratio after 48 hrs by MTT assay; assay type: functional
[17] = target: Serine/threonine-protein kinase pim-1 (Homo sapiens) (UniProt P11309); assay: Inhibition of PIM1 (unknown origin) at 10 uM
Sequence of Serine/threonine-protein kinase pim-1 (Homo sapiens) (P11309 whole entry, looked up): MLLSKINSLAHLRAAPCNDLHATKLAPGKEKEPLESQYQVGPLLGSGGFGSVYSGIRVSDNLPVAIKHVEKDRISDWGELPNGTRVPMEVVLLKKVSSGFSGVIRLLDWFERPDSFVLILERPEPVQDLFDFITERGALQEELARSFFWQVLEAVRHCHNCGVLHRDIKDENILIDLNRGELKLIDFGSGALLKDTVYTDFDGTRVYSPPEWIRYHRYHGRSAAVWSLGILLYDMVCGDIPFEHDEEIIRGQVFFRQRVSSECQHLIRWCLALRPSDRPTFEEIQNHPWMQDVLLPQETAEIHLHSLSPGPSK

[18] = target: Platelet-derived growth factor receptor beta (Homo sapiens) (UniProt P09619); assay: Inhibition of PDGFRbeta (unknown origin) at 10 uM
HCT-116 [19] = assay: Synergistic cytotoxicity against human HCT116 cells assessed as reduction in cell viability by measuring combination index at 1:1 compound to crizotinib ratio after 48 hrs by MTT assay; assay type: functional
[20] = target: Tyrosine-protein kinase CSK (Homo sapiens) (UniProt P41240); assay: Inhibition of CSK (unknown origin) at 10 uM
HCT-116 [21] = assay: Inhibition of cytokinesis in human HCT116 cells at 100 nM after 24 hrs by propidium iodide/RNase staining-based flow cytometric analysis; assay type: functional, cell-based
HCT-116 [22] = assay: Synergistic cytotoxicity against human HCT116 cells assessed as reduction in cell viability by measuring combination index at 1:1 compound to lonafarnib ratio after 48 hrs by MTT assay; assay type: functional
[23] = target: Receptor-type tyrosine-protein kinase FLT3 (Homo sapiens) (UniProt P36888); assay: Inhibition of FLT3 (unknown origin) at 10 uM
Aurora kinase A = target: T1, Aurora kinase A (Homo sapiens, UniProt O14965); assay: Inhibition of recombinant Aurora A (unknown origin) using TAMRA-PKAtide as substrate after 30 mins by fluorescence polarization assay
T1 sequence (O14965 whole entry): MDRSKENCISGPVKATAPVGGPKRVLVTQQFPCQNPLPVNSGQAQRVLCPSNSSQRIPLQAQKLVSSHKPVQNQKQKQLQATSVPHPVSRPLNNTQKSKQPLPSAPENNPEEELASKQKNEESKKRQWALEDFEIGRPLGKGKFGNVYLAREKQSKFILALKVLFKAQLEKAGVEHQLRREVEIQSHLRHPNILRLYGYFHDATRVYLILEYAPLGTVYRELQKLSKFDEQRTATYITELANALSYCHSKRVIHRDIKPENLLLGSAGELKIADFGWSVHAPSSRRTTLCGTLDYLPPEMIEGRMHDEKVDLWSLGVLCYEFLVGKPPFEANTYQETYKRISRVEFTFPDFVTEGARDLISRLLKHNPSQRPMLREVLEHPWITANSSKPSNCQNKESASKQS

[24] = target: Angiopoietin-1 receptor (Homo sapiens) (UniProt Q02763); assay: Inhibition of TIE2 (unknown origin) at 10 uM
[25] = target: Fibroblast growth factor receptor 3 (Homo sapiens) (UniProt P22607); assay: Inhibition of FGFR3 (unknown origin) at 10 uM
Sequence of Fibroblast growth factor receptor 3 (Homo sapiens) (P22607 23-806 limits assumed): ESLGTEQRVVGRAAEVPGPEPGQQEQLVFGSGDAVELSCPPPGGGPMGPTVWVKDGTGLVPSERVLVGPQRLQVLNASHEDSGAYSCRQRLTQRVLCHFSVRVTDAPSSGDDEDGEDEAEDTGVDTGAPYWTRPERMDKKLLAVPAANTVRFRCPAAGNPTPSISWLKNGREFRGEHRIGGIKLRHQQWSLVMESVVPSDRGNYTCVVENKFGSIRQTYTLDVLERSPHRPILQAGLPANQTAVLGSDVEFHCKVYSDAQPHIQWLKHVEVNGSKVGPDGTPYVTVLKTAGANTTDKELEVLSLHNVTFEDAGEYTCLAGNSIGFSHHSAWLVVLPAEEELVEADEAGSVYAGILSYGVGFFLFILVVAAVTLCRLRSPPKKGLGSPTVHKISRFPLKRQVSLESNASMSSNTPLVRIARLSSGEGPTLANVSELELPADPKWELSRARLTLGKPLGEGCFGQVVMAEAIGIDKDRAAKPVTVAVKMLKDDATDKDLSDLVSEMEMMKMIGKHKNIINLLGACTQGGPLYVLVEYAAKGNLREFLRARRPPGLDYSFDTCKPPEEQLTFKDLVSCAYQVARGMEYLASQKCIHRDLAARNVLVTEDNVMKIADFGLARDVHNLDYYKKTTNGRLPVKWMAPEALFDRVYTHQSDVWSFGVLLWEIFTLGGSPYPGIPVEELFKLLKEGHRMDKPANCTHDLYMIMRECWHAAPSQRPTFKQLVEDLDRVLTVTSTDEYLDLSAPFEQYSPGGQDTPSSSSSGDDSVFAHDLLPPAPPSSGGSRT

[26] = target: RAC-alpha serine/threonine-protein kinase (Homo sapiens) (UniProt P31749); assay: Inhibition of AKT1 (unknown origin) at 10 uM
Sequence of RAC-alpha serine/threonine-protein kinase (Homo sapiens) (P31749 whole entry): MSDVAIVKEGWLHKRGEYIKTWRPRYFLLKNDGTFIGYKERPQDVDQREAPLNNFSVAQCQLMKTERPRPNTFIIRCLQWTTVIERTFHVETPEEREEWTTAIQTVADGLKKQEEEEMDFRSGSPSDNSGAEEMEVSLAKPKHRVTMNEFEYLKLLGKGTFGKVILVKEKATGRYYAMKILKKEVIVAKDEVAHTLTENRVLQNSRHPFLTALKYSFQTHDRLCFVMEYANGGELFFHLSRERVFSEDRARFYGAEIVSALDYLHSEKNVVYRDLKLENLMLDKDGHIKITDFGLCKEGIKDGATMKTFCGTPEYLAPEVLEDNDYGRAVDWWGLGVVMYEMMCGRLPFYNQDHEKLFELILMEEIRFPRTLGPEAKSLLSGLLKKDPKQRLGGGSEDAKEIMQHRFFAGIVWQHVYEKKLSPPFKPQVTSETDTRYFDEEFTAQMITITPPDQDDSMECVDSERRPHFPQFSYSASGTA

[27] = target: CDK2/Cyclin A2 (Homo sapiens) (UniProt P24941+P20248); assay: Inhibition of CDK2/cyclin A (unknown origin) at 10 uM; assay type: protein-complex assay
[28] = target: Mitogen-activated protein kinase 3 (Homo sapiens) (UniProt P27361); assay: Inhibition of ERK1 (unknown origin) at 10 uM
[29] = target: High affinity nerve growth factor receptor (Homo sapiens) (UniProt P04629); assay: Inhibition of TrkA (unknown origin) at 10 uM
[30] = target: Vascular endothelial growth factor receptor 2 (Homo sapiens) (UniProt P35968); assay: Inhibition of VEGFR2 (unknown origin) at 10 uM
Sequence of Vascular endothelial growth factor receptor 2 (Homo sapiens) (P35968 whole entry): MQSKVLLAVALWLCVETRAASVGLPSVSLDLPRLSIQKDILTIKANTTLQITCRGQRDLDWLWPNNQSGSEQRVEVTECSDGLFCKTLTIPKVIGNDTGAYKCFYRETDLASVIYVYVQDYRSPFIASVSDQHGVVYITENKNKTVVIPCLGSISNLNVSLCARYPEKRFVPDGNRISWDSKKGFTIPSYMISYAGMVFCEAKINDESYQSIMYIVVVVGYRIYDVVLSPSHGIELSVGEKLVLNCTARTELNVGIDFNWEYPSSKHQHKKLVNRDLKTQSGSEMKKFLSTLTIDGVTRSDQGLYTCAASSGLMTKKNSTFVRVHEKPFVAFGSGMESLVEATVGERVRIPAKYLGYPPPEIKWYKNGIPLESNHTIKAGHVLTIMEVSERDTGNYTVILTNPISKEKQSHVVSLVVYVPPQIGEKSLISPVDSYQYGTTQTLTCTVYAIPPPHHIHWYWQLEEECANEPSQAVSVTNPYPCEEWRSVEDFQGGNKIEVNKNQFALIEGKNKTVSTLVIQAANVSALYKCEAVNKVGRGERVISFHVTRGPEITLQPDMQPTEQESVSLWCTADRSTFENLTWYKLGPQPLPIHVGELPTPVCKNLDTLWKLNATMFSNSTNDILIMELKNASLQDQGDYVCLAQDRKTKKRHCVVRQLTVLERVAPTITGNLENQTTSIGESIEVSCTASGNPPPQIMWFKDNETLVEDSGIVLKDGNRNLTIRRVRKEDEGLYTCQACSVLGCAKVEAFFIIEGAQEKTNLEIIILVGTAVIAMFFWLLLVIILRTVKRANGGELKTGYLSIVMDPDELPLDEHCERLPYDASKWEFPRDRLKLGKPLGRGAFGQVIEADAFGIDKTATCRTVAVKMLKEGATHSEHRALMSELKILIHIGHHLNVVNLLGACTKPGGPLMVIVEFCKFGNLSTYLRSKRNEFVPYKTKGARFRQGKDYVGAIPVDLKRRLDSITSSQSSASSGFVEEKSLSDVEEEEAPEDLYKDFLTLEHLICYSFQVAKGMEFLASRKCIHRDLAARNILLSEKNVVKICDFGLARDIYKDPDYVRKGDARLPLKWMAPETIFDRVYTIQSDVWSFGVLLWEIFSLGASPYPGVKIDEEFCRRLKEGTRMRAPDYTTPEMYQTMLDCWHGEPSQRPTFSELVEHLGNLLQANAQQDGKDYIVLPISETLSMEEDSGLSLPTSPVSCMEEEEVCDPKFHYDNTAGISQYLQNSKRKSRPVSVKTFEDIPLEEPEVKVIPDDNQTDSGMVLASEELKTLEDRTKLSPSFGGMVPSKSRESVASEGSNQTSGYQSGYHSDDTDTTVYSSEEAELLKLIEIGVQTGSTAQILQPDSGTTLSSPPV

[31] = target: Serine/threonine-protein kinase B-raf (Homo sapiens) (UniProt P15056); assay: Inhibition of BRAF (unknown origin) at 10 uM
[32] = target: Interleukin-1 receptor-associated kinase 4 (Homo sapiens) (UniProt Q9NWZ3); assay: Inhibition of IRAK4 (unknown origin) at 10 uM
Sequence of Interleukin-1 receptor-associated kinase 4 (Homo sapiens) (Q9NWZ3 whole entry): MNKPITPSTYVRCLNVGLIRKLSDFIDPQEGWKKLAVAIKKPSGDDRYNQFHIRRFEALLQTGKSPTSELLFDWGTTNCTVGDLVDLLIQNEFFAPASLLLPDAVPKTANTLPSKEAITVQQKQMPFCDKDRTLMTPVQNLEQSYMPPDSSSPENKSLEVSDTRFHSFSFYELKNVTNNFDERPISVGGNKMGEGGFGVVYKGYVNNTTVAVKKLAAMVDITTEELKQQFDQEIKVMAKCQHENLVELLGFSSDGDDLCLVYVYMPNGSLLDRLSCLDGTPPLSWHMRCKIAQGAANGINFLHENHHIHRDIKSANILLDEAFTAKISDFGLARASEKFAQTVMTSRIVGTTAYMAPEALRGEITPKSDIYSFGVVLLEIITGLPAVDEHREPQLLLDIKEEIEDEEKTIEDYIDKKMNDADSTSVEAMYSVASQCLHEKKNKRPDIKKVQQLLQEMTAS

HCT-116 [33] = assay: Cytotoxicity against human HCT116 cells assessed as reduction in cell viability after 48 hrs by MTT assay; assay type: functional, cell-based; conditions: HCT-116, 48 h
[34] = target: Inhibitor of nuclear factor kappa-B kinase subunit beta (Homo sapiens) (UniProt O14920); assay: Inhibition of IKKbeta (unknown origin) at 10 uM

inhibition [2]: 28.5%
inhibition [3]: 11.8%
inhibition [4]: 71.6%
inhibition [5]: 44.1%
inhibition [6]: 62.8%
inhibition [9]: 78.7%
inhibition [11]: 105%
inhibition [12]: 8.62%
inhibition [17]: 35.7%
inhibition [18]: 88%
inhibition [20]: 17.3%
inhibition [23]: 56.8%
IC50 (Aurora kinase A): 32 nM
inhibition [24]: 35.7%
inhibition [25]: 81.6%
inhibition [26]: 13.6%
inhibition [27]: 33.9%
inhibition [28]: 12.4%
inhibition [29]: 95.3%
inhibition [30]: 109%
inhibition [31]: 53.5%
inhibition [32]: 16%
inhibition [34]: 16.2%
SMILES: CNC(=O)Nc1sc2c(C(C)C)cc(NS(=O)(=O)c3cccs3)cc2c1C(N)=O
CI (HCT-116 [1]): 0.25
CI (HT-29 [7]): 0.075
CI (HT-29 [8]): 0.185
inhibition [10]: 12.9%
CI (HCT-116 [13]): 0.195
CI (HCT-116 [14]): 1
CI (HT-29 [15]): 1.044
IC50 (HCT-15): 620 nM
CI (HT-29 [16]): 0.073
CI (HCT-116 [19]): 0.136
Cytokinesis inhibition (active/inactive call) (HCT-116 [21]): Active
CI (HCT-116 [22]): 0.755
IC50 (HCT-116 [33]): 290 nM
